Molecules are shown by their SMILES. Where only a bound is given, the exact number is not on record here.

The target of test [1] is T1, GPR40 (Homo sapiens, UniProt O14842). The experiment in a line: Cell-based aequorin assay (CHO cells stably expressing GPR40 and aequorin). Conditions: activation of human GPR40, CHO cells, 0.01% HSA. On the set-up: expressed in transfected cells; host or cells: CHO cells stably transfected with GPR40 and aequorin. In short, it runs like this:
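CHO cells stably co-expressing GPR40 and aequorin, loaded with coelenterazine (1 ug/mL, 2 h, room temperature) in H/HBSS with 20 mM Hepes and 0.01% fatty acid-free HSA. Serially diluted compounds added; luminescence recorded over 20 s. EC50 from dose-response of maximum relative light units.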

Test [2] has as its target T1, GPR40. Description: Inositol phosphate accumulation assay (A9_GPR40 cells). In kind it is cell-based. The note with it: inositol phosphate assay, A9_GPR40 cells, 1 hour; read-out: IP3 EC50. Also noted: expressed in transfected cells; host or cells: CHO cells stably transfected with GPR40 and aequorin. The method, then:
Briefly, the Aequorin assays were performed on doubly stable CHO cells expressing GPR40 and Aequorin DNA. […] The luminescence was recorded over a period of 20 seconds with a Microlumat luminometer (Berthold). […] The inositol phosphate assay was performed on an A9 cell line stably transfected with GPR40 (A9_GPR40). The cells were incubated with different concentrations of compounds and [^3H] inositol accumulation was measured after 1 hour.
An A9 cell line stably transfected with GPR40 (A9_GPR40) was used in IP accumulation assays. A9_GPR40 cells were plated in 96-well plates containing 20,000 cells/well in DMEM containing 10% FBS. After the cells attached to the well surface, the media was replaced with inositol free DMEM containing 10% dialyzed FBS and 1 μCi, mL ^3H-inositol and incubated for 16 hours. Compounds were diluted in HBSS/10 mM LiCl containing a desired amount of HSA and added directly to cells. Following 1 hour incubation at 37° C., the media was replaced with 100 μL of 20 mM formic acid to quench the reaction. 50 μL of the extract was then added to 100 μL of SPA beads, incubated overnight, and measured on a TopCount the following day.

T1 sequence (O14842 whole entry): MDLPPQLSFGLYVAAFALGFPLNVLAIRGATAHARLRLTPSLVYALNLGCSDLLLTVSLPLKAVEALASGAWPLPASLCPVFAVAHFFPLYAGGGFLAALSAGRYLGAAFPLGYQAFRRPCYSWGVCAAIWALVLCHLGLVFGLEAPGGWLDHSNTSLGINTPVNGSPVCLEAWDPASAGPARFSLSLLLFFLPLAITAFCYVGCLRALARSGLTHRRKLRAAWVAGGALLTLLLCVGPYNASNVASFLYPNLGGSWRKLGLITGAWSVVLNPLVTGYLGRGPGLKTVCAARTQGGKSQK

With `CCCCOc1cc(COc2cccc([C@H](C)CC(=O)O)c2)ccc1-c1cc(OC)ccc1F` (single isomer, unassigned) [Example 5, (3R)-3-(3-(((2Butyloxy)-2′-fluoro-5′-(methyloxy)-1,1′-biphenyl-4-yl)methyl)oxy)phenyl)butanoic acid or (3S)-3-(3-(((2-(butyloxy)-2′-fluoro-5′-(methyloxy)-1,1′-biphenyl-4-yl)methyl)oxy)phenyl)butanoic acid], the EC50 in test [1] and in test [2] was 0.1 to 1 µM throughout. For `COc1ccc(F)c(-c2ccc(COc3cccc([C@@H](CC(=O)O)C(F)(F)F)c3)cc2C(C)(C)C)c1` (single isomer, unassigned) [Example 6, (3R)-3-(3-(((2-(1,1-Dimethylethyl)-2′-fluoro-5′-(methyloxy)-1,1′-biphenyl-4-yl)methyl)oxy)phenyl)-4,4,4-trifluorobutanoic acid or (3S)-3-(3-(((2-(1,1-dimethylethyl)-2′-fluoro-5′-(methyloxy)-1,1′-biphenyl-4-yl)methyl)oxy)phenyl)-4,4,4-trifluorobutanoic acid], the EC50 in test [1] was 1 to 10 µM; in test [2], greater than 1 µM. For `CCCCOc1cc(COc2cccc([C@@H](CC(=O)O)C(F)(F)F)c2)ccc1-c1cc(OC)ccc1F` (single isomer, unassigned) [Example 7, (3R)-3-(3-(((2-(Butyloxy)-2′-fluoro-5′-(methyloxy)-1,1′-biphenyl-4-yl)methyl)oxy)phenyl)-4,4,4-trifluorobutanoic acid or (3S)-3-(3-(((2-(butyloxy)-2′-fluoro-5′-(methyloxy)-1,1′-biphenyl-4-yl)methyl)oxy)phenyl)-4,4,4-trifluorobutanoic acid], the EC50 in test [1] and in test [2] was 1 to 10 µM each time. As to `COc1ccc(F)c(-c2ccc(COc3cccc([C@@H](CC(=O)O)C4CC4)c3)cc2C(C)(C)C)c1` (single isomer, unassigned) [Example 8, (3S)-3-Cyclopropyl-3-(3-(((2-(1,1-dimethylethyl)-2′-fluoro-5′-(methyloxy)-1,1′-biphenyl-4-yl)methyl)oxy)phenyl)propanoic acid or (3R)-3-cyclopropyl-3-(3-(((2-(1,1-dimethylethyl)-2′-fluoro-5′-(methyloxy)-1,1′-biphenyl-4-yl)methyl)oxy)phenyl)propanoic acid], the EC50 in test [1] and in test [2] was 0.1 to 1 µM throughout. The compound `CCC(CC(=O)O)c1cc(F)cc(OCc2ccc(-c3cc(OC)ccc3F)c(C3=CCCC3(C)C)c2)c1F` (single isomer, unassigned) [Example 101.1, (3S)-3-(3-(((2-(5,5-Dimethyl-1-cyclopenten-1-yl)-2′-fluoro-5′-(methyloxy)-1,1′-biphenyl-4-yl)methyl)oxy)-2,5-difluorophenyl)pentanoic acid or (3R)-3-(3-(((2-(5,5-dimethyl-1-cyclopenten-1-yl)-2′-fluoro-5′-(methyloxy)-1,1′-biphenyl-4-yl)methyl)oxy)-2,5-difluorophenyl)pentanoic acid] returned an EC50 in test [1] of 1 to 10 µM. Same read-out and setting: the same measure for `CCC(CC(=O)O)c1cc(F)cc(OCc2ccc(-c3cc(OC)ccc3F)c(C3CCCC3(C)C)c2)c1F` (single isomer, unassigned) [Example 101.2]: 0.1 to 1 µM; for `COC[C@H](CC(=O)O)c1cccc(OCc2ccc(-c3cc(OC)ccc3F)c(C(C)(C)C)c2)c1` (single isomer, unassigned) [Example 102, (3R)-3-(3-(((2-(1,1-Dimethylethyl)-2′-fluoro-5′-(methyloxy)-1,1′-biphenyl-4-yl)methyl)oxy)phenyl)-4-(methyloxy)butanoic acid or (3S)-3-(3-(((2-(1,1-dimethylethyl)-2′-fluoro-5′-(methyloxy)-1,1′-biphenyl-4-yl)methyl)oxy)phenyl)-4-(methyloxy)butanoic acid]: 0.1 to 1 µM; for `COc1cccc(-c2ccc(COc3cccc(CCC(=O)O)c3)cc2C)c1` [Example 1, 3-(3-(((2-Methyl-3′-(methyloxy)-1,1′-biphenyl-4-yl)methyl)oxy)phenyl)propanoic acid]: 1 to 10 µM. Still for that read-out and setting: the same measure for `COc1ccc(F)c(-c2ccc(COc3cccc(CCC(=O)O)c3)cc2C)c1` [Example 2, 3-(3-(((2′-Fluoro-2-methyl-5′-(methyloxy)-1,1′-biphenyl-4-yl)methyl)oxy)phenyl)propanoic acid]: 0.1 to 1 µM. In test [1], `CCCCOc1ccc(OC)cc1-c1ccc(COc2cccc(CCC(=O)O)c2)cc1C` [Example 4, 3-(3-(((2′-(Butyloxy)-2-methyl-5′-(methyloxy)-1,1′-biphenyl-4-yl)methyl)oxy)phenyl)propanoic acid] came in with a concentration giving a half-maximal response (EC50) of 1 to 10 µM. `CCCCOc1cc(COc2cccc(CCC(=O)O)c2)ccc1-c1cc(OC)ccc1F` [Example 13, 3-(3-(((2-(Butyloxy)-2′-fluoro-5′-(methyloxy)-1,1′-biphenyl-4-yl)methyl)oxy)phenyl)propanoic acid]: the EC50 in test [1] lay in the range of 1 to 10 µM. Still for that read-out and setting: with `COc1cccc(-c2ccc(COc3cccc(CCC(=O)O)c3)cc2C(C)(C)C)c1` [Example 40, 3-(3-(((2-(1,1-Dimethylethyl)-3′-(methyloxy)-1,1′-biphenyl-4-yl)methyl)oxy)phenyl)propanoic acid] the figure was 0.1 to 1 µM; with `CCOc1cccc(-c2ccc(COc3cccc(CCC(=O)O)c3)cc2C(C)(C)C)c1` [Example 41, 3-(3-(((2-(1,1-Dimethylethyl)-3′-(ethyloxy)-1,1′-biphenyl-4-yl)methyl)oxy)phenyl)propanoic acid], 1 to 10 µM; with `COc1ccc(F)c(-c2ccc(COc3cccc(CCC(=O)O)c3)cc2C2CCCC2(C)C)c1` (centres unmarked) [Example 61.1, 3-(3-(((2-(2,2-Dimethylcyclopentyl)-2′-fluoro-5′-(methyloxy)-1,1′-biphenyl-4-yl)methyl)oxy)phenyl)propanoic acid], 0.1 to 1 µM. Still for that read-out and setting: with `CSc1cccc(-c2ccc(COc3cccc(CCC(=O)O)c3)cc2C(C)(C)C)c1` [Example 61.4, 3-(3-(((2-(1,1-Dimethylethyl)-3′-(methylsulfanyl)-1,1′-biphenyl-4-yl)methyl)oxy)phenyl)propanoic acid] the figure was 1 to 10 µM. The same measure, in the same setting: with `COc1ccc(F)c(-c2ccc(COc3cccc([C@@H](CC(=O)O)c4ccon4)c3)cc2C2=CCCC2(C)C)c1` [Example 94.1, (3R)-3-(3-(((2-(5,5-Dimethyl-1-cyclopenten-1-yl)-2′-fluoro-5′-(methyloxy)-1,1′-biphenyl-4-yl)methyl)oxy)phenyl)-3-(3-isoxazolyl)propanoic acid] the figure was 1 to 10 µM; with `COc1ccc(F)c(-c2ccc(COc3cccc([C@@H](CC(=O)O)c4ccon4)c3)cc2C(C)(C)C)c1` [Example 94.2, (3R)-3-(3-(((2-(1,1-Dimethylethyl)-2′-fluoro-5′-(methyloxy)-1,1′-biphenyl-4-yl)methyl)oxy)phenyl)-3-(3-isoxazolyl)propanoic acid], 1 to 10 µM; with `COc1ccc(F)c(-c2ccc(COc3cncc(CCC(=O)O)c3)cc2C(C)(C)C)c1` [Example 96, 3-(5-(((2-(1,1-Dimethylethyl)-2′-fluoro-5′-(methyloxy)-1,1′-biphenyl-4-yl)methyl)oxy)-3-pyridinyl)propanoic acid], 1 to 10 µM. Compound `COc1ccc(F)c(-c2ccc(COc3cccc(C4(CC(=O)O)CCCCC4)c3)cc2C(C)(C)C)c1` [Example 105.2, {1-[3-(2-tert-Butyl-2′-fluoro-5′-methoxy-biphenyl-4-ylmethoxy)-phenyl]-cyclohexyl}-acetic acid] came in with an EC50 in test [1] of 1 to 10 µM.

For orientation: EC50 means the concentration that produces a half-maximal response.

These data come from patent publication US8030354B2, “Substituted biphenyl GPR40 modulators” (Amgen Inc., priority 2007, dated 2011).
